Consider two molecules from patent publication US11834392B2, “KDM4B inhibitors for the treatment of inflammatory diseases and disorders” (MUSC FOUNDATION FOR RESEARCH DEVELOPMENT, priority 2019, dated 2023).

One may read the IC50 as the concentration at which inhibition is half-maximal. Read a high IC50 as weaker potency in that assay.

The subject of series [1] is bone marrow derived macrophages (BMDMs). Description: In vitro periodontal disease inflammation model (IL-6 ELISA after A.a LPS challenge). The following applies: for immunosuppressive action (pro-inflammatory cytokine response to A.a LPS): murine macrophages, A.a LPS challenge. The format is cell-based, C57BL/6 mice.
Series [2] deals with H3K9me3. In words: H3K9me3 staining to confirm KDM4B inhibitory activity. The class given is cell-based.
Series [3] deals with T1, KDM4B (Homo sapiens, UniProt O94953).
T1 sequence (O94953 1-1096): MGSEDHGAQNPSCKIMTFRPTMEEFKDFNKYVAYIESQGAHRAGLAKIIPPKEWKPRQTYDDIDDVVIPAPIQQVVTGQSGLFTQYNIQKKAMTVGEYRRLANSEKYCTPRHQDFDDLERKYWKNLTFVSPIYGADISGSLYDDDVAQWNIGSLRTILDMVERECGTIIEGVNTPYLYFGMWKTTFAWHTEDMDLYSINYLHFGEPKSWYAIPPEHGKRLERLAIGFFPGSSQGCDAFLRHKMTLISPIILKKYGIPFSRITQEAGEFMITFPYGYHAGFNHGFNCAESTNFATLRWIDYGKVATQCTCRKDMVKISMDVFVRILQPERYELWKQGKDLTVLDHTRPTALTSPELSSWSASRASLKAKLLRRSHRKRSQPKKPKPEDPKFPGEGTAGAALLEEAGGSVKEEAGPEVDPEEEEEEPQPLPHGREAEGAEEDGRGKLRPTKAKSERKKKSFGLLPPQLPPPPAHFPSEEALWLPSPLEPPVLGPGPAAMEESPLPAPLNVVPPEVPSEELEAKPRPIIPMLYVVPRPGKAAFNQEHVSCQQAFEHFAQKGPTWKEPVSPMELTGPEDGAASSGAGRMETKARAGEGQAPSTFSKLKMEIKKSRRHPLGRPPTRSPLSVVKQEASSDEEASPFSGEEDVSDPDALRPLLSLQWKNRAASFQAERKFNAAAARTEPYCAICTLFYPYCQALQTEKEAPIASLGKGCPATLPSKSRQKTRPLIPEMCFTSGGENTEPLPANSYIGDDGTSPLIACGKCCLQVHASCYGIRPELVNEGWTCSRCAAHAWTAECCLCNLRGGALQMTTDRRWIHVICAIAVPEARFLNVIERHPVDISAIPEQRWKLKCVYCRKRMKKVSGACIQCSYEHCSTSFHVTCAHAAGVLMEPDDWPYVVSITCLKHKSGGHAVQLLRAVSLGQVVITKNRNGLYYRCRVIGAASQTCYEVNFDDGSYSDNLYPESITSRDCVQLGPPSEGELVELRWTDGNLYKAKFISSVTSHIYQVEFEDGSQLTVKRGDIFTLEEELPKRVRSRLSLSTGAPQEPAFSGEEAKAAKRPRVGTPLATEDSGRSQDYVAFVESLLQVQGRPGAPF
In words: KDM4B inhibition. The class given is biochemical.

Series [4] has as its system H3K4me. In words: Global H3K4me levels in fluorescence-stained macrophages after Aa-LPS challenge. The class given is cell-based. From the text:
(§1) As such, KDM4B represents a new therapeutic target for treating hyper-inflammatory diseases that result in, for example, bone destruction.

In series [5] the test system is osteoclast progenitors. Description: Aa-LPS-induced osteoclastogenesis. The format is cell-based.
Description: as §1

The subject of series [6] is Primary BMDMs. Description: IL-10 expression by qRT-PCR in BMDMs. The class given is cell-based. The following applies: 50 μM 1 hour pre-treatment, A.a LPS 100 ng/mL, 24 hours. On the procedure: Primary BMDMs were isolated and differentiated as previously described and were pre-treated with ML324 at 50 μM for 1 hour followed by A.a LPS (100 ng/mL). […] (FIG. 5D)
For series [7], the system named is Primary BMDMs. In words: Extracellular flux analysis (seahorse XFe96). The class given is cell-based. On the procedure: (§2) Primary BMDMs were isolated and differentiated as previously described and were pre-treated with ML324 at 50 uM for 1 hour followed by A.a LPS (100 ng/mL). 24 hours later, extracellular flux was analyzed using a seahorse XFe96 instrument and following metabolic analysis, cells were incubated with phalloidin 488 and DAPI. Representative images were acquired using the Hermes […] system at 10× for morphological analysis. N=4. […] Primary BMDMs were isolated and differentiated as previously described and were pre-treated with ML324 at 50 μM for 1 hour followed by A.a LPS (100 ng/mL). […] (FIG. 5D)

The subject of series [8] is Primary BMDMs. Description: Macrophage morphology / polarization (phalloidin 488 and DAPI staining). The class given is cell-based. The conditions noted are these: 50 μM 1 hour pre-treatment, A.a LPS 100 ng/mL, 24 hours. On the procedure: as §2
Series [9] is described as follows: Solubility. The following applies: at effective doses. The format is physicochemical.
Series [10] addresses T2, KDM4E (Homo sapiens, UniProt B2RXH2).
T2 sequence (B2RXH2 1-506): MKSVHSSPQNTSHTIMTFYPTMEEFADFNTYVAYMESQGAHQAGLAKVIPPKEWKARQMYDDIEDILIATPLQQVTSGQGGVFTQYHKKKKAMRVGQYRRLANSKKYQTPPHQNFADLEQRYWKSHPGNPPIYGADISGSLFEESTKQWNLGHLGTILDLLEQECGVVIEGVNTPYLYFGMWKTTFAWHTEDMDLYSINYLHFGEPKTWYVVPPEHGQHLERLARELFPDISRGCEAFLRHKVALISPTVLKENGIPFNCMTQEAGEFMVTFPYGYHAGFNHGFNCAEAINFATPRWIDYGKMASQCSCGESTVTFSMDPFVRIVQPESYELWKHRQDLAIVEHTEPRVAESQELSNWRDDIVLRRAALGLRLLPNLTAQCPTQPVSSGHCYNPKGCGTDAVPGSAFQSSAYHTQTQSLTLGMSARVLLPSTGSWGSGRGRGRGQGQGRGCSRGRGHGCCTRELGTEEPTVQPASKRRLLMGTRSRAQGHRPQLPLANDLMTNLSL
The following applies: in vitro; cited from earlier work.

The test system of series [11] is herpes simplex virus. The conditions noted are these: mice, high doses; cited from earlier work.
In series [12] the test system is cytomegalovirus. The conditions noted are these: mice, high doses; cited from earlier work.
For series [13] the following is noted: cited from earlier work.

“Also recorded” adds a separate entry of the source.

`O=C(Nc1ccccc1C(=O)O)c1ccc(-c2ccccc2)cc1` [Compound 12, 2-([1,1′-biphenyl]-4-carboxamido)benzoic acid]: the “dose-dependent immunosuppressive response to A.a LPS” value in series [1] is reported as “dose-dependent immunosuppressive response; also recorded: dose-dependent immunosuppressive effect”. Besides, in series [2], the “H3K9me3 expression / staining” value is listed as “concurrent increase in H3K9me3; also recorded: increase in H3K9me3 staining”.

Turning to `CN(C)CCCNC(=O)c1ccc(-c2cc(O)c3ncccc3c2)cc1` [ML324], in [3], half-maximal inhibition (IC50) was put at 4.9 µM and the “activity toward KDM4B” value is listed as “active”. Moreover, the “immunosuppressive action (pro-inflammatory cytokine response to A.a LPS)” value in series [1] is listed as “decreases the pro-inflammatory cytokine response”. Moreover, the “immunosuppressive action (pro-inflammatory cytokine response to A.a LPS)” value in series [1] (listed as 1) is listed as “immunosuppressive action”. For the same molecule, in [4], the “global H3K4me levels following Aa-LPS challenge” value is “prevented by KDM4B inhibition”. For the same molecule, the Aa-LPS-induced osteoclastogenesis entry in [5] was “significant reduction”. Moreover, the “IL-10 expression (mRNA)” value in [6] is “significantly higher IL-10 expression”. Also, in [7] (50 μM 1 hour pre-treatment, A.a LPS 100 ng/mL, 24 hours), the “glycolytic activity of LPS treated cells” value is on record as “rescued this effect”. In addition, the spare respiratory capacity result in [7] (LPS with or without ML324, compared to PBS control) was “reduced spare respiratory capacity”. In [8], the “macrophage morphology / polarization (M1 phenotype)” value was “alters macrophage polarization; also recorded: able to rescue this effect”. Besides, the solubility result in series [9] is given as “highly insoluble at effective doses”. Moreover, the “inhibition of KDM4E” value in series [10] is “known to inhibit”. The “viral replication of herpes simplex virus” value in series [11] is reported as “shown to inhibit viral replication”. In addition, the “viral replication of cytomegalovirus” value in [12] is reported as “shown to inhibit viral replication”. The cell permeability result in series [13] is listed as “good cell permeability”.
